Test results as given in article PMC8041777, “Protein kinase A controls the hexosamine pathway by tuning the feedback inhibition of GFAT-1” (Nature Communications, 2021).

Molecular target: T1, GFAT-1 (human GFAT-1 isoform 2, hGFAT1) (Homo sapiens, UniProt Q06210)
T1 construct: gene GFPT1; full length, internal His6-tag between Gly299 and Asp300 (kept), expressed in Sf21 insect cells (MultiBac), Ni-NTA and SEC purified
Experiment: GDH-coupled amidohydrolysis assay (APADH at […] nm)
Assay type: biochemical
Conditions: 10 mM L-Gln, 6 mM Frc6P, 1 mM APAD, 50 mM KCl, 100 mM potassium phosphate pH 7.5, 37 °C; allosteric feedback inhibitor, isomerase domain site

T1 sequence (Q06210 2-681 isoform Q06210-2): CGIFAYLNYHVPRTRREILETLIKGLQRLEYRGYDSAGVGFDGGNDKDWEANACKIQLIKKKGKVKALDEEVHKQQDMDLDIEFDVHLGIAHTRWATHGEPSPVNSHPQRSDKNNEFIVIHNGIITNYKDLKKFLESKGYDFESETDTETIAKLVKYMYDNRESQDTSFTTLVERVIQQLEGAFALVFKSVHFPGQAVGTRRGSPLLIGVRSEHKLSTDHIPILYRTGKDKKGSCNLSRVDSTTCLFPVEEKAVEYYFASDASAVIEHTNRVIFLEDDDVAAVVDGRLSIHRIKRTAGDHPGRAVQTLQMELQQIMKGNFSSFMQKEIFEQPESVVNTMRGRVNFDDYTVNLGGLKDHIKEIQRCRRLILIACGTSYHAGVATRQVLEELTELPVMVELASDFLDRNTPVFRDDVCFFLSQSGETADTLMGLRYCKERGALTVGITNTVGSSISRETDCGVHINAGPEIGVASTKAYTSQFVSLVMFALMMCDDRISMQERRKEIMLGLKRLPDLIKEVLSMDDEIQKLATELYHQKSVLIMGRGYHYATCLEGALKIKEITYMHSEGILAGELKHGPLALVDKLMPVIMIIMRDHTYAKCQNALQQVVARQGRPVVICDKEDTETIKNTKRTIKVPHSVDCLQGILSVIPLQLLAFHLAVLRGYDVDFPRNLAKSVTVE

- IC50: 41.4 −3.5/+3.9 µM
SMILES: CC(=O)N[C@H]1[C@@H](OP(=O)(O)OP(=O)(O)OC[C@H]2O[C@@H](n3ccc(=O)[nH]c3=O)[C@H](O)[C@@H]2O)O[C@H](CO)[C@@H](O)[C@@H]1O [UDP-GlcNAc]
